Assay: xn = mol fraction of the nth substance listed
Details: 101 kPa, Liquid; for viscosity: Falling or rolling sphere viscometry; for speed of sound: Sing-around technique in a fixed-path interferometer; for mass density: Vibrating tube method

CCCC[n+]1ccn(C)c1.O=S(=O)([N-]S(=O)(=O)C(F)(F)F)C(F)(F)F + CCO
Details	mass density [kg/m3]	speed of sound [m/s]	viscosity [mPa·s]
278.15 K, x1 = 0.049	939.65	1204.6	2.64
278.15 K, x1 = 0.096	1032.42	1204.5	3.8
278.15 K, x1 = 0.194	1162.65	1213.9	7.4
278.15 K, x1 = 0.288	1241.69	1225.4	12.59
278.15 K, x1 = 0.39	1300.98	1237.1	18.82
278.15 K, x1 = 0.484	1340.75	1245.5	26.93
278.15 K, x1 = 0.591	1375.63	1253.5	38
278.15 K, x1 = 0.696	1401.82	1260	52.96
278.15 K, x1 = 0.818	1426.17	1266.3	77.99
278.15 K, x1 = 0.9	1439.65	1269.8	99.43
278.15 K, x1 = 1	1453.69	1273.8	139.82
298.15 K, x1 = 0.049	921.49	1142.4	1.71
298.15 K, x1 = 0.096	1013.65	1146.4	2.35
298.15 K, x1 = 0.194	1143.26	1160.7	4.13
298.15 K, x1 = 0.288	1222.07	1174.6	6.64
298.15 K, x1 = 0.39	1281.27	1188	9.5
298.15 K, x1 = 0.484	1321.04	1197.4	12.92
298.15 K, x1 = 0.591	1355.98	1206.2	17.3
298.15 K, x1 = 0.696	1382.23	1213.2	22.86
298.15 K, x1 = 0.818	1406.65	1219.8	31.21
298.15 K, x1 = 0.9	1420.19	1223.6	38.05
298.15 K, x1 = 1	1434.23	1227.5	51.22
318.15 K, x1 = 0.049	903.02	1082	1.18
318.15 K, x1 = 0.096	994.64	1090	1.57
318.15 K, x1 = 0.194	1123.77	1109.1	2.61
318.15 K, x1 = 0.288	1202.45	1125.5	3.95
318.15 K, x1 = 0.39	1261.65	1140.5	5.62
318.15 K, x1 = 0.484	1301.51	1150.8	7.52
318.15 K, x1 = 0.591	1336.54	1160.7	9.76
318.15 K, x1 = 0.696	1362.91	1168.3	12.42
318.15 K, x1 = 0.818	1387.44	1175.6	16.16
318.15 K, x1 = 0.9	1401.04	1179.7	19.03
318.15 K, x1 = 1	1415.13	1184	24.36
338.15 K, x1 = 0.049	883.95	1022.5	0.85
338.15 K, x1 = 0.096	975.18	1034.5	1.12
338.15 K, x1 = 0.194	1104.04	1058.5	1.79
338.15 K, x1 = 0.288	1182.73	1077.4	2.71
338.15 K, x1 = 0.39	1242.06	1094.2	3.7
338.15 K, x1 = 0.484	1282.08	1105.8	4.86
338.15 K, x1 = 0.591	1317.28	1116.5	6.26
338.15 K, x1 = 0.696	1343.8	1124.9	7.79
338.15 K, x1 = 0.818	1368.47	1133	9.83
338.15 K, x1 = 0.9	1382.15	1137.6	11.28
338.15 K, x1 = 1	1396.35	1142.7	13.94
